Data: US9040250B2, “Binding interaction of proanthocyanidins with bacteria and bacterial components” (The United States of America, as represented by the …, priority 2006, dated 2015)
Where two headings read alike, the source gives them in different places.

Tests used:
[1] = system: HEK 293 cells stably expressing human CD14 and TLR4/MD2; test: LPS endocytosis (internalization) in HEK-CD14-TLR4/MD2 cells; format: cell-based; conditions: 25 nM LPS, 1.5 h 37° C.; 0.5 μM PAC; antibodies 500 nM in binding sites
Procedure: (§1) Analysis of LPS membrane binding and endocytosis. Human embryonic kidney cells (HEK 293) stably expressing human CD14 and TLR4/MD2 (HEK-CD14-TLR4/MD2; Invivogen) were grown in chambered wells and incubated with 25 nM LPS (E. coli serotype O55:B5, Sigma) in the absence or presence of 0.5 μM LH20 PAC (Dial>6K) for 1.5 h at 37° C. […] After incubation, the cells were washed with PBS (10 min) twice and either fixed (with 3.7% paraformaldehyde) to assess LPS membrane binding or fixed and permeabilized (with 0.1% Triton X-100) to determine LPS internalization. After blocking with 1% normal goat serum, membrane bound or internalized LPS was detected using a goat anti-LPS antibody (O/K serotype-specific, Abcam) conjugated to fluorescein. Nuclei were counterstained with DAPI. Imaging was performed using an Olympus IX-71 microscope. The relative amounts of membrane-associated or intracellular fluorescence were quantified by image analysis using Image J software (NIH, v. 1.37). Data is reported as the mean channel fluorescence from membrane-associated or internalized LPS and represents the analysis of 10 to 20 cells from each sample (minimum 10 measurements per each cell). Merged images were produced using Photoshop CS2 (ver. 9).

[2] = system: HEK 293 cells stably expressing human CD14 and TLR4/MD2; test: LPS membrane binding in HEK-CD14-TLR4/MD2 cells; format: cell-based; conditions: 25 nM LPS, 1.5 h 37° C.; 0.5 μM PAC; antibodies 500 nM in binding sites
Procedure: as §1

[3] = system: FITC-labeled LPS (from E. coli 055:B5); test: Fluorescence-based pull down assay of FITC-LPS with Sepharose-immobilized PACs; format: binding, Escherichia coli; conditions: for IC50: PAC beads equilibrated with lipid A, 3 μg/mL FITC-LPS (approx. 3 nM)
Procedure: PAC and catechin immobilization—Purified PACs and catechin (Sigma-Aldrich) were immobilized onto activated thiol-Sepharose® 4B (Sigma-Aldrich) via a (N-[p-maleimidophenyl]isocyanate) (PMPI; Pierce) crosslinker. Sepharose® was swelled in deionized water for 1 hour (1 g dry material in 15 mL H2O). The material was then washed using fresh dI-H2O over five suspend/centrifuge/decant cycles (total 50 mL per gram dry starting material). Suspension was accomplished using a vortex and centrifuge steps were conducted at 3,000 g for five minutes. The Sepharose® material (total volume 5 mL per gram starting material) was then rinsed three times with ethanol (total volume 30 mL per gram starting material). The PMPI crosslinker was incubated with the rinsed Sepharose material for 1 hour at room temperature under constant agitation using a 10-fold molar excess of PMPI over the thiol-group concentration with 3% dimethylsulfoxide in ethanol (10 mL per gram starting material). Incubation was followed by centrifuging, decanting, and rinsing in 50% ethanol for three cycles. The Sepharose was then incubated overnight at 4° C. in ethanol with PAC or catechin using a 10-fold molar excess of analyte in 50% ethanol (10 mL per gram starting material). As a final step, the Sepharose was rinsed over four cycles using 50% ethanol (40 mL total per gram starting material) and resuspended in 0.02% sodium azide in H2O (16 mL final volume per gram starting material). The materials were stored in the dark at 4° C. until use. PAC concentrations for bead sets were determined by Prussian blue assay.
Fluorescence-based pull down assays for lipopolysaccharide (LPS) were conducted in 50 mM TRIS at pH 8.0 using Sepharose-immobilized PACs and agarose-immobilized polymyxin B (Sigma-Aldrich, St. Louis, Mo.). […] The fluorescence of the FITC-labeled LPS (from E. coli 055:B5; Sigma-Aldrich) was measured using a Tecan XSafire monochrometer-based micro plate reader at 495 nm excitation and 520 nm emission (5 nm bandwidths). […]

HEK-CD14-TLR4/MD2 cells = test: Cytotoxicity, CellTiter96 cell proliferation assay; format: cell-based, human; conditions: 48 h culture
Procedure: Cytotoxicity assays—Cellular toxicity was measured using a calorimetric cell proliferation assay (CellTiter96™, Promega). HEK-CD14-TLR4/MD2 cells were seeded into the wells of a 96-well plate (1×10^4 cells/well) and cultured with a dose range of test compounds for 48 h prior to assay according to the manufacturer's instructions.

[4] = system: LPS-FITC (E. coli 055:B5); test: LPS-FITC binding by PACs immobilized on glass waveguide (stationary assay); set-up: species or system Escherichia coli; conditions: patterned at 10 mg/mL via PMPI; LPS-FITC 1 hour
Text: Immobilization of PACs and LPS binding assay—To determine the ability of PAC materials to effectively bind bacteria and bacterial cell components upon immobilization to a solid support, PACs from cranberry and grape juices were covalently attached to the surface of a glass microscope slide (waveguide) using a modification of a common technique used for protein immobilization (Rowe et al., Anal. Chem., 71, 3846 (1999)). Catechin monomer and buffer only areas were also included as controls. Briefly, the waveguides, glass microscope slides (Daigger, Wheeling, Ill.), were cleaned by immersion in potassium hydroxide/methanol solution (Cras et al., Biosens. Bioelectron., 14, 683 (1999)) followed by rinsing and drying. The clean waveguides were then incubated with 2% (3-mercaptopropyl)triethoxysilane (Pierce Chemicals, Rockford, Ill.) in toluene for 45 minutes followed by rinsing and drying. The slides were immersed in 1.8 mM N-[p-maleimidophenyl]isocyanate (PMPI) in ethanol for 1 hour. The maleimide-group of PMPI reacts with the sulfhydryl-group provided by the silane reaction leaving the isocyanate-group free to react with the hydroxyl-groups of PACs. […] Slides were imaged using evanescent wave fluorescence spectroscopy with excitation at 496 nm and emission collected above 515 nm. […]

Substance | inhibition of LPS endocytosis [1] | decrease in membrane-bound LPS (LPS binding inhibition) [2] | IC50 ([3]; read-out: IC50, inhibition of FITC-LPS binding by immobilized PACs from cranberries) | IC50 ([3]; read-out: IC50, inhibition of FITC-LPS binding by immobilized PACs from tea) | inhibition of FITC-LPS binding by immobilized PACs at high lipid A concentration ([3]; lipid A concentrations as high as 100 μM) | concentrations at which no toxicity was elicited (HEK-CD14-TLR4/MD2 cells) | binding of LPS-FITC by material immobilized on waveguide [4]
diphosphoryl lipid A | 84% | did not significantly reduce LPS membrane binding | 500 nM | 100 nM | ≤ 80% | below 3 μM | 
catechin |  |  |  |  |  |  | no binding even at the highest concentrations tested
